Experimental data published in ChEMBL document CHEMBL3351679, “Radioiodinated benzyloxybenzene derivatives: a class of flexible ligands target to β-amyloid plaques in Alzheimer's brains” (J Med Chem, 2014).

Assays:
[1] = target: T1, Amyloid-beta precursor protein (Homo sapiens, UniProt P05067); test: Displacement of [125I]1-Iodo-4-((4-methoxyphenoxy)methyl)benzene from amyloid beta42 (unknown origin) after 3 hrs by gamma counting
[2] = target: T1, Amyloid-beta precursor protein; test: Binding affinity to amyloid beta42 (unknown origin) after 3 hrs by gamma counting
[3] = tested on: Blood; test: In vivo biostability in ICR mouse blood assessed as radioactivity at 250 uCi, iv measured at 60 mins post dose; format: ADME, organism-based; conditions: 1 h
[4] = In vivo biostability in ICR mouse urine assessed as radioactivity at 250 uCi, iv measured at 30 mins post dose; format: ADME, organism-based; conditions: 0.5 h
[5] = tested on: Brain; test: In vivo biostability in ICR mouse brain assessed as radioactivity at 250 uCi, iv measured at 10 mins post dose; format: ADME, organism-based
[6] = tested on: Brain; test: In vivo biostability in ICR mouse brain assessed as radioactivity at 250 uCi, iv measured at 2 mins post dose; format: ADME, organism-based
[7] = In vivo biostability in ICR mouse feces assessed as radioactivity at 250 uCi, iv measured at 60 mins post dose; format: ADME, organism-based; conditions: 1 h
[8] = tested on: Brain; test: In vivo biostability in ICR mouse brain assessed as radioactivity at 250 uCi, iv measured at 60 mins post dose; format: ADME, organism-based; conditions: 1 h
[9] = tested on: Brain; test: Biodistribution in ICR mouse brain at 250 uCi, iv measured at 60 mins post dose; format: ADME, organism-based; conditions: in vivo, 1 h
[10] = tested on: Brain; test: Biodistribution in ICR mouse brain at 250 uCi, iv measured at 2 mins post dose; format: ADME, organism-based; conditions: in vivo
[11] = tested on: Liver; test: In vivo biostability in ICR mouse liver assessed as radioactivity at 250 uCi, iv measured at 60 mins post dose; format: ADME, organism-based; conditions: 1 h
[12] = tested on: Brain; test: In vivo biostability in ICR mouse brain assessed as radioactivity at 250 uCi, iv measured at 30 mins post dose; format: ADME, organism-based; conditions: 0.5 h
[13] = Partition coefficient, log D of the compound; format: physicochemical; conditions: octanol/water
[14] = tested on: Liver; test: In vivo biostability in ICR mouse liver assessed as radioactivity at 250 uCi, iv measured at 2 mins post dose; format: ADME, organism-based
[15] = tested on: Liver; test: Biostability in mouse liver homogenate assessed as radioactivity at 30 uCi at 37 degC measured at 60 mins by HPLC; format: ADME, tissue-based; conditions: tissue homogenate, 1 h
[16] = tested on: Blood; test: In vivo biostability in ICR mouse blood assessed as radioactivity at 250 uCi, iv measured at 2 mins post dose; format: ADME, organism-based
[17] = tested on: Liver; test: In vivo biostability in ICR mouse liver assessed as radioactivity at 250 uCi, iv measured at 30 mins post dose; format: ADME, organism-based; conditions: 0.5 h
[18] = tested on: Brain; test: Ratio of drug uptake in ICR mouse brain at 250 uCi, iv measured at 2 mins post dose to drug uptake in ICR mouse brain at 250 uCi, iv measured at 60 mins post dose; format: ADME, organism-based; conditions: in vivo
[19] = tested on: Liver; test: In vivo biostability in ICR mouse liver assessed as radioactivity at 250 uCi, iv measured at 10 mins post dose; format: ADME, organism-based
[20] = tested on: Blood; test: In vivo biostability in ICR mouse blood assessed as radioactivity at 250 uCi, iv measured at 10 mins post dose; format: ADME, organism-based
[21] = tested on: Blood; test: In vivo biostability in ICR mouse blood assessed as radioactivity at 250 uCi, iv measured at 30 mins post dose; format: ADME, organism-based; conditions: 0.5 h
[22] = In vivo biostability in ICR mouse feces assessed as radioactivity at 250 uCi, iv measured at 30 mins post dose; format: ADME, organism-based; conditions: 0.5 h
[23] = In vivo biostability in ICR mouse urine assessed as radioactivity at 250 uCi, iv measured at 60 mins post dose; format: ADME, organism-based; conditions: 1 h
[24] = tested on: Plasma; test: Biostability in mouse plasma assessed as radioactivity at 30 uCi at 37 degC measured at 60 mins by HPLC; format: ADME, cell-free; conditions: 1 h
[25] = In vivo biostability in ICR mouse urine assessed as radioactivity at 250 uCi, iv measured at 10 mins post dose; format: ADME, organism-based

T1 sequence (P05067 whole entry): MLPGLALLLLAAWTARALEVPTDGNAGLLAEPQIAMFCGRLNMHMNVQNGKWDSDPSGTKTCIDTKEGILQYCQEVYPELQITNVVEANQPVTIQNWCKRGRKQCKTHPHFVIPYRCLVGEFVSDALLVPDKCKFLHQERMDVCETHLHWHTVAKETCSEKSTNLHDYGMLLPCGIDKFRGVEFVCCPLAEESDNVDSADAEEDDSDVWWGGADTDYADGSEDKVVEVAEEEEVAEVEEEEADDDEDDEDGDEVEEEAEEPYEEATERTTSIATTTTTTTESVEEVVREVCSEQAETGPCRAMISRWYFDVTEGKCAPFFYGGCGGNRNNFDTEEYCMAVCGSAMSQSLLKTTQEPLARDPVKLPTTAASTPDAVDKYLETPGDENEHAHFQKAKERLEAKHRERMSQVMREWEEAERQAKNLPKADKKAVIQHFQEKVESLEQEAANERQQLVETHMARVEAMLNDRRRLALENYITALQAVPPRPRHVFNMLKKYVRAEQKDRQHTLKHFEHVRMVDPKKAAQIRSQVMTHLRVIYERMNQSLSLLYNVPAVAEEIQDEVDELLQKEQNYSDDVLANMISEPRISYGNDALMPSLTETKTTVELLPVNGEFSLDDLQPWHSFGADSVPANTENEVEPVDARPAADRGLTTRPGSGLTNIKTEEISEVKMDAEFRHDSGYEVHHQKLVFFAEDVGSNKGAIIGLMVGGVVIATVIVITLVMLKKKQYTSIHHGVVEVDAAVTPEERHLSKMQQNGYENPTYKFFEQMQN

CNc1cccc(OCc2ccc(I)cc2)c1
Ki ([1]; read-out: Ki): 594 nM
Ki ([1]; read-out: pKi (converted)): 589 nM

COc1ccccc1OCc1ccc(I)cc1
Ki ([1]; read-out: Ki): 5160 nM
Ki ([1]; read-out: pKi (converted)): 5130 nM

Nc1ccc(OCc2ccc(I)cc2)cc1
Ki ([1]; read-out: Ki): 409 nM
Ki ([1]; read-out: pKi (converted)): 407 nM

Clc1ccc(OCc2ccc(I)cc2)cc1
Ki ([1]; read-out: Ki): 18.8 nM
Ki ([1]; read-out: pKi (converted)): 18.6 nM

CNc1ccc(OCc2ccc(I)cc2)cc1
Ki ([1]; read-out: Ki): 48.2 nM
Ki ([1]; read-out: pKi (converted)): 47.9 nM

CN(C)c1cccc(OCc2ccc(I)cc2)c1
Ki ([1]; read-out: Ki): 894 nM
Ki ([1]; read-out: pKi (converted)): 891 nM

COc1ccc(OCc2ccc([125I])cc2)cc1
Kd [2]: 0.56 nM
Stability [3]: 10.6%
Stability [4]: 2.4%
Stability [5]: 82%
Stability [6]: 95%
Stability [7]: 40.6%
Stability [8]: 38.9%
Drug uptake [9]: < 0.5 % ID/g
Drug uptake [10]: 6.18 % ID/g
Stability [11]: 1.9%
Stability [12]: 46.6%
logD [13]: 4
Stability [14]: 42.4%
Stability [15]: 100%
Stability [16]: 71.5%
Stability [17]: 2.5%
Ratio [18]: 16.3
Stability [19]: 31.9%
Stability [20]: 49.7%
Stability [21]: 18.2%
Stability [22]: 49.9%
Stability [23]: 1.3%
Stability [24]: 100%
Stability [25]: 8.4%

COc1ccc(OCc2ccc(I)cc2)cc1
Ki ([1]; read-out: Ki): 24.3 nM
Ki ([1]; read-out: pKi (converted)): 24.5 nM

Nc1ccccc1OCc1ccc(I)cc1
Ki ([1]; read-out: Ki): 1030 nM
Ki ([1]; read-out: pKi (converted)): 1020 nM

Ic1ccc(COc2ccccc2)cc1
Ki ([1]; read-out: Ki): 79.4 nM
Ki ([1]; read-out: pKi (converted)): 79.4 nM

Nc1cccc(OCc2ccc(I)cc2)c1
Ki ([1]; read-out: Ki): 1530 nM
Ki ([1]; read-out: pKi (converted)): 1550 nM

Brc1ccc(OCc2ccc(I)cc2)cc1
Ki ([1]; read-out: Ki): 12 nM
Ki ([1]; read-out: pKi (converted)): 12 nM

Oc1ccc(OCc2ccc(I)cc2)cc1
Ki ([1]; read-out: Ki): 113 nM
Ki ([1]; read-out: pKi (converted)): 112 nM

CC(C)(C)c1ccc(OCc2ccc(I)cc2)cc1
Ki ([1]; read-out: Ki): 118 nM
Ki ([1]; read-out: pKi (converted)): 117 nM

COc1ccc(SCc2ccc(I)cc2)cc1
Ki ([1]; read-out: Ki): 530 nM
Ki ([1]; read-out: pKi (converted)): 525 nM

Oc1ccccc1OCc1ccc(I)cc1
Ki ([1]; read-out: Ki): 2830 nM
Ki ([1]; read-out: pKi (converted)): 2820 nM

Ic1ccc(COc2ccc(I)cc2)cc1
Ki ([1]; read-out: Ki): 21.9 nM
Ki ([1]; read-out: pKi (converted)): 21.9 nM

Fc1ccc(OCc2ccc(I)cc2)cc1
Ki ([1]; read-out: Ki): 107 nM
Ki ([1]; read-out: pKi (converted)): 107 nM

CNc1ccccc1OCc1ccc(I)cc1
Ki ([1]; read-out: Ki): 20700 nM
Ki ([1]; read-out: pKi (converted)): 20900 nM

CN(C)c1ccc(OCc2ccc([125I])cc2)cc1
Drug uptake [9]: < 0.5 % ID/g
Drug uptake [10]: > 4 % ID/g
logD [13]: 2.89

COc1ccc(COc2ccc([125I])cc2)cc1
Drug uptake [9]: < 0.5 % ID/g
Drug uptake [10]: > 4 % ID/g
logD [13]: 4.16

COc1cccc(OCc2ccc(I)cc2)c1
Ki ([1]; read-out: Ki): 131 nM
Ki ([1]; read-out: pKi (converted)): 132 nM

COc1ccc(COc2ccc(I)cc2)cc1
Ki ([1]; read-out: Ki): 49.4 nM
Ki ([1]; read-out: pKi (converted)): 49 nM

Oc1cccc(OCc2ccc(I)cc2)c1
Ki ([1]; read-out: Ki): 386 nM
Ki ([1]; read-out: pKi (converted)): 389 nM

CN(C)c1ccc(OCc2ccc(I)cc2)cc1
Ki ([1]; read-out: Ki): 17.6 nM
Ki ([1]; read-out: pKi (converted)): 17.8 nM
